From PMC12114619, “Nifuroxazide and 4-Hydroxybenzhydrazone Derivatives as New Antiparasitic (Trypanosoma cruzi and Leishmania mexicana) and Anti-Mycobacterium tuberculosis Agents” (Pharmaceutics, 2025)
≈ marks a conversion by molar mass, not a printed value. Where “and” joins values, the source holds several entries; their conditions need not be identical. Equal entries are not always repeated.

Columns and labels:
[1] = system: T. cruzi NINOA (MHOM/MX/1994/NINOA) strain epimastigotes; assay: Trypanocidal activity, T. cruzi epimastigotes, NINOA strain (resazurin); format: cell-based, Trypanosoma cruzi; conditions: 48 h
[2] = system: T. cruzi strain A1 epimastigotes; assay: Trypanocidal activity, T. cruzi epimastigotes, A1 strain (resazurin); format: cell-based, Trypanosoma cruzi; conditions: 48 h
[3] = system: L. mexicana MNYC/BZ/62/M379 promastigotes; assay: Leishmanicidal activity, L. mexicana promastigotes, M379 strain (MTT); format: cell-based, Leishmania mexicana; conditions: 48 h
Procedure: (§1) For leishmanicidal assays, the reference strain (MNYC/BZ/62/M379) and the isolate (MHOM/MX/2017/UABJO17FCQEPS) of L. mexicana were used. Promastigotes were cultured in RPMI 1640 medium supplemented with 10% FBS, 100 U/mL penicillin-100 […] streptomycin, and glutamine (2 mM). 100 µL parasites (5 × 10^5/mL) were added in a 96-well plate, and 100 µL of appropriate concentrations (0.78 to 200 µM) of each sample dissolved in DMSO and incubated for 48 h at 26 °C. Wells containing promastigotes with DMSO 0.2% were used as a negative control, and the reference drug glucantime was included as the positive control. The 3-(4,5-Dimethylthiazol-2-yl)-2,5-diphenyltetrazolium bromide (MTT) was used to measure metabolic activity. The IC50 values were calculated with the probit statistical tool. All samples were evaluated in triplicate in three independent experiments.

[4] = system: L. mexicana MHOM/MX/2017/UABJO17FCQEPS promastigotes; assay: Leishmanicidal activity, L. mexicana promastigotes, FCQEPS isolate (MTT); format: cell-based, Leishmania mexicana; conditions: 48 h, FCQEPS strain
Procedure: as §1

[5] = system: M. tuberculosis H37Rv (ATCC 27294); assay: Anti-Mycobacterium activity, microplate Alamar Blue Assay (MABA); format: cell-based, Mycobacterium tuberculosis; conditions: H37Rv strain, minimum concentration achieving 90% inhibition; for MIC: Mycobacterium tuberculosis
Procedure: The reference strain H37Rv (ATCC 27294) of M. tuberculosis was utilized to assess anti-M. tuberculosis activity using the microplate Alamar Blue Assay (MABA), as previously reported. Samples underwent evaluation in triplicate independent experiments. Isoniazid, rifampicin, moxifloxacin, and linezolid were included as reference drugs, and the minimum drug concentration that achieved 90% inhibition was recorded as the minimum inhibitory concentration (MIC).

[6] = Cytotoxicity on macrophages (MTT); format: cell-based, mouse; conditions: mouse, Cytotoxicity (CC50) Macrophages J774.2
Procedure: Cytotoxicity was assessed on J774.2 mouse macrophage cells (ATCC® TIB-67, ATCC, Manassas, VA, USA). Cells were cultured in RPMI medium supplemented with 10% SFB, 100 U µg/mL penicillin-100 mg/mL streptomycin, and glutamine (2 mM) at 37 °C and in a 5% CO2 atmosphere. A known concentration of cells (1 × 10^6/mL) was incubated with the compounds at different concentrations (0.78 to 200 µM) for 48 h at 37 °C in a CO2 atmosphere (5%). Wells containing cells treated with 0.2% DMSO were used as a negative control. MTT was employed to evaluate the metabolic activity. Next, the cell viability was calculated (%), and the cytotoxic concentration (CC50) was determined with probit analysis. All samples were evaluated in triplicate in three independent experiments.

| SMILES | IC50 [1] [µM] | IC50 ([1]; Trypanosoma cruzi) [µM] | IC50 [2] [µM] | IC50 ([2]; Trypanosoma cruzi) [µM] | IC50 ([3]; Leishmania mexicana) [µM] | IC50 ([4]; Leishmania mexicana) [µM] | MIC [5] [µg/mL] | CC50 at 48 h [6] [µM] | IC50 T. cruzi NINOA [1] | IC50 [3] | IC50 [4] [µM] | MABA MIC [5] [µg/mL] | IC50 T. cruzi A1 [2] | IC50 ([1]; listed as Nfx) [µM] |
| --- | --- | --- | --- | --- | --- | --- | --- | --- | --- | --- | --- | --- | --- | --- |
| COc1ccc(/C=N/NC(=O)c2ccc(O)cc2)cc1 [Nfz-11] | 28.2 ± 1.4 | 28.2 | 18.2 ± 1.4 | 18.1 | > 200 | > 200 | > 100 | 46.6 ± 4.9 | – | – | – | – | – | – |
| COc1ccccc1/C=N/NC(=O)c1ccc(O)cc1 [Nfz-12] | – | > 100 | – | > 100 | < 20 | 60.3 ± 4.7 | > 100 | 76.5 ± 3.6 | inactivity | 11.5 µM and 11.6 µM | – | – | – | – |
| COc1cccc(/C=N/NC(=O)c2ccc(O)cc2)c1OC [Nfz-13] | 63.1 ± 1.4 | > 60 | – | > 100 | 162 ± 6.9 | 124.5 ± 1.1 | 158 (≈ 525 µM) | > 100 | – | – | – | – | – | – |
| COc1cc(/C=N/NC(=O)c2ccc(O)cc2)cc(OC)c1OC [Nfz-14] | – | 28 ± 1.9 | 29.2 ± 4.4 | 29.2 | > 200 | 10.2 | > 200 | > 100 | – | – | 10.3 ± 0.8 | – | – | – |
| O=C(N/N=C/c1ccc(F)cc1)c1ccc(O)cc1 [Nfz-15] | – | > 100 | 32.6 ± 2.8 | < 50 | ~30 | 102 ± 2.7 | > 100 | 74 ± 3.4 | loss of trypanocidal activity | 35.1 ± 4.7 µM | – | – | – | – |
| O=C(N/N=C/c1ccc(Cl)cc1)c1ccc(O)cc1 [Nfz-16] | – | > 100 | 40.2 ± 2.7 | < 50 | > 60 | 78.1 ± 3.6 | < 50 | 83.2 ± 3.2 | loss of trypanocidal activity | 67.5 ± 4 µM | – | 46.4 | – | – |
| O=C(N/N=C/c1ccc(Br)cc1)c1ccc(O)cc1 [Nfz-17] | – | > 100 | 33.6 ± 3.9 | < 50 | > 60 | 52.1 ± 4.8 | < 50 | > 100 | loss of trypanocidal activity | 62 ± 2.5 µM | – | 43.6 | – | – |
| O=C(N/N=C/c1ccccc1[N+](=O)[O-])c1ccc(O)cc1 [Nfz-19] | 36.5 ± 2.2 | 36.4 | 42.5 ± 6.7 | 42.4 | > 100 | > 200 | > 100 | > 100 | – | 146.7 ± 0.7 µM | – | – | – | – |
| O=C(N/N=C/c1ccc2ccccc2c1)c1ccc(O)cc1 [Nfz-20] | – | > 100 | 24.5 ± 2 | 24.4 | < 30 | > 200 | > 100 | 88.3 ± 3.9 | loss of the activity | 28.4 ± 2.8 µM | – | – | – | – |
| O=C(N/N=C/c1ccc2c(c1)OCCO2)c1ccc(O)cc1 [Nfz-21] | – | > 100 | – | 49 ± 2.1 | 71.5 ± 4.9 | > 200 | 68.7 (≈ 230 µM) | > 100 | loss of the activity | – | – | – | – | – |
| O=C(N/N=C/c1ccc(-c2ccccc2)cc1)c1ccc(O)cc1 [Nfz-22] | 6.87 ± 1.2 | 6.8 | – | > 100 | > 200 | 133 ± 1.4 | > 100 | 43.5 ± 2.5 | – | – | – | – | – | – |
| O=C(N/N=C/c1cc2c(cc1[N+](=O)[O-])OCO2)c1ccc(O)cc1 [Nfz-23] | – | > 100 | 13.5 ± 3.4 | 13.5 | < 20 | > 200 | > 100 | 68.9 ± 6.6 | loss of the activity | 16 ± 2 µM | – | – | – | – |
| CC(=O)Nc1ccc(/C=N/NC(=O)c2ccc(O)cc2)cc1 [Nfz-24] | – | – | 22.2 ± 1.4 | 22.1 | 54.1 | 55.8 ± 3.5 | > 100 | > 100 | – | 54.2 ± 4 µM | – | – | – | – |
| COC(=O)c1ccc(/C=N/NC(=O)c2ccc(O)cc2)cc1 [Nfz-25] | – | > 100 | – | > 100 | 32.5 ± 6.1 | > 200 | < 50 | > 100 | no activity | – | – | 45.9 | inactive | – |
| CC1CS(=O)(=O)CCN1/N=C/c1ccc([N+](=O)[O-])o1 (centres unmarked) [Nifurtimox, reference compound] | 7.09 ± 0.2 | > 7 | – | 19.3 ± 0.8 | – | – | – | – | – | – | – | – | – | 7 |
| CO[C@H]1/C=C/O[C@@]2(C)Oc3c(C)c(O)c4c(O)c(c(/C=N/N5CCN(C)CC5)c(O)c4c3C2=O)NC(=O)/C(C)=C\C=C\[C@H](C)[C@H](O)[C@@H](C)[C@@H](O)[C@@H](C)[C@H](OC(C)=O)[C@@H]1C [Rifampin, reference compound] | – | – | – | – | – | – | 0.074 (≈ 0.0899 µM) | – | – | – | – | – | – | – |
